The structures appear in SMILES notation.

The target of this experiment is PDE9A (Homo sapiens (Human), UniProt O76083). The experiment in a line: PDE9A inhibitory activity, fluorescence polarization assay (IMAP-FP screening express kit). In kind it is biochemical. The note with it: enzyme PDE9A 5 ng/ml, Fl-cGMP substrate 100 nM, room temperature 1 hour. How it is done: The inhibitory activity of the representative compounds according to the present invention against phosphodiesterase 9A was tested based on the polarization assay (IMAP-FP screening express kit) provided by MDS (MDS Analytical Technologies, Sunyvale, CA, USA). As a buffer solution, a reaction solution (a reaction solution containing 0.01% Tween 20 provided by MDS was diluted 5 times, then 5 mM DTT is added) and a polarization detection solution (binding solution A and B provided by MDS were mixed at a ratio of 3:1 and IMAP binding reagent 1/600 was added) were prepared. 100 μM of the substrate (Fl-cGMP substrate; MDS) and 3.6 μg/ml of the enzyme PDE9A (ab54113; abeam) were prepared. 3.6 μg/ml PDE9A and 100 μM substrate were diluted to 20 ng/ml (final reaction concentration: 5 ng/ml) and 400 nM (final reaction concentration: 100 nM), respectively. The buffer solution used for all dilution and preparation processes was 1× reaction solution with 1 mM DTT added, and the polarization detection solution was used to induce polarization at the end.
PDE9A, sequence (O76083 whole entry): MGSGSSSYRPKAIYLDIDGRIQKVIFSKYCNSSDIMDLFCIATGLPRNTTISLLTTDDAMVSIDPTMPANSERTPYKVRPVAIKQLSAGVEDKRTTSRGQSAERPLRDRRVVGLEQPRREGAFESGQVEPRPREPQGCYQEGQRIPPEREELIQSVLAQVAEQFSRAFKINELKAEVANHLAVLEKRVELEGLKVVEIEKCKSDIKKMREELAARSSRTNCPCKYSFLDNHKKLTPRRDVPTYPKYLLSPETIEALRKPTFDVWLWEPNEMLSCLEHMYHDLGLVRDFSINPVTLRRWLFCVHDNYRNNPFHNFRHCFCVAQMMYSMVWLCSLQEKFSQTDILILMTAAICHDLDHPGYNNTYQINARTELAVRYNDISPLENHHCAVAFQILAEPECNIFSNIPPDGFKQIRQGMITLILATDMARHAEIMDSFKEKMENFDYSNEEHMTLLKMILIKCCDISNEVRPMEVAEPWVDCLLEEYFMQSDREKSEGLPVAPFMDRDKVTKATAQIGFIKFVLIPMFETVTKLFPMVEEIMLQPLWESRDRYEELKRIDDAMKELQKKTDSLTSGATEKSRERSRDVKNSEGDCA
The prepared samples were dispensed on black microplates (Multiwell 384 well plates, #3573, Corning Life Sciences, Lowell, MA, USA) using a 16-channel pipette (multi 16-channel, Finnpipette, Thermo Scientific, Essex, UK). The total reaction volume per well is 20 μl. At this time, 10 μl of 2% DMSO, 5 μl of substrate solution, and 5 μl of reaction solution were used as a negative control, and 10 μl of 2% DMSO, 5 μl of substrate solution, and 5 μl of PDE9A solution were used as a positive control. As the experimental group, 10 μl of the compound prepared in Example, 5 μl of the substrate solution, and 5 μl of the PDE9A solution were used. After pretreatment between the compound and the enzyme was performed for about […] before the enzyme-substrate reaction, 5 μl of cGMP was added to induce the enzyme reaction. During the reaction, each compound, enzyme, and substrate occupied 50%, 25%, and 25% of the total volume, respectively, and they were prepared at high concentrations of 2, 4, and 4 times, respectively, immediately before addition. After the enzymatic reaction, it was shaken lightly for 1 minute and the enzyme reaction was induced at room temperature for 1 hour. Then, 60 μl of a polarization detection solution prepared in advance was added to induce polarization.
Nanoparticles composed of trivalent metal ions are mixed in the fluorescence detection solution, which combines with phosphoric acid expose by enzymatic reaction to increase the molecular weight and induce polarization. After leaving for 2 hours at room temperature, the polarization (Fluorescence Polarization, FP) value was measured using a multilabel counter (Envision, PerkinElmer, Turku, Finland) (emission wavelength: P-535 nm, S-535 nm, excitation wavelength: 480 nm), and the result was expressed as an IC50 value, which is the concentration of the compound that inhibited PDE9A by 50% in vitro (Table 2).
For orientation: IC50 means the concentration that inhibits the measured activity by half. A high value points to a need for much substance. `CCSc1nnc(NC(=O)C(Sc2nc3c(cnn3-c3ccccc3)c(=O)[nH]2)c2ccccc2)s1` (stereo not drawn) [Example 26, N-(5-(ethylthio)-1,3,4-thiadiazol-2-yl)-2-((4-oxo-1-phenyl-4,5-dihydro-1H-pyrazolo[3,4-d]pyrimidin-6-yl)thio)-2-phenylacetamide] displayed an IC50 of 9 nM. The figure for `CC(Sc1nc2c(cnn2C2CCOCC2)c(=O)[nH]1)C(=O)Nc1nnc(Cl)s1` (stereo not drawn) [Example 47, N-(5-chloro-1,3,4-thiadiazol-2-yl)-2-((4-oxo-1-(tetrahydro-2H-pyran-4-yl)-4,5-dihydro-1H-pyrazolo[3,4-d]pyrimidin-6-yl)thio)propanamide] is 0.1 nM; for `CC(C)(C)c1nnc(NC(=O)CSc2nc3c(cnn3-c3ccccc3)c(=O)[nH]2)s1` [Example 22, N-(5-(tertiary-butyl)-1,3,4-thiadiazol-2-yl)-2-((4-oxo-1-phenyl-4,5-dihydro-1H-pyrazolo[3,4-d]pyrimidin-6-yl)thio)acetamide] it is 100 nM; for `CCSc1nnc(NC(=O)C(C)Sc2nc3c(cnn3-c3ccccc3)c(=O)[nH]2)s1` (stereo not drawn) [Example 11, N-(5-(ethylthio)-1,3,4-thiadiazol-2-yl)-2-((4-oxo-1-phenyl-4,5-dihydro-1H-pyrazolo[3,4-d]pyrimidin-6-yl)thio)propanamide] it is 10 nM.

In turn, `CCSc1nnc(NC(=O)CSc2nc3c(cnn3C3CCCCC3)c(=O)[nH]2)s1` [Example 34, N-(5-(ethylthio)-1,3,4-thiadiazol-2-yl)-2-((4-oxo-1-cyclohexyl-4,5-dihydro-1H-pyrazolo[3,4-d]pyrimidin-6-yl)thio)acetamide] showed an IC50 of 1 nM. In the case of `O=C(CSc1nc2c(cnn2C2CCOCC2)c(=O)[nH]1)Nc1nnc(Br)s1` [Example 33, N-(5-bromo-1,3,4-thiadiazol-2-yl)-2-((4-oxo-1-(tetrahydro-2H-pyran-4-yl)-4,5-dihydro-1H-pyrazolo[3,4-d]pyrimidin-6-yl)thio)acetamide] it was 0.4 nM; in that of `O=C(CSc1nc2c(cnn2-c2ccccc2)c(=O)[nH]1)Nc1nnc(SCc2ccc(Cl)cc2)s1` [Example 8], 19 nM. The figure for `O=C(CSc1nc2c(cnn2-c2ccccc2)c(=O)[nH]1)Nc1nnc(SCc2ccccc2)s1` [Example 6] is 14 nM. In turn, `O=C(CSc1nc2c(cnn2-c2ccccc2)c(=O)[nH]1)Nc1nnc(Cl)s1` [Example 30, N-(5-chloro-1,3,4-thiadiazol-2-yl)-2-((4-oxo-1-phenyl-4,5-dihydro-1H-pyrazolo[3,4-d]pyrimidin-6-yl)thio)acetamide] registered an IC50 of 18 nM.

The values above are taken from US12187729B2, “Compounds having PDE9A inhibitory activity, and pharmaceutical uses thereof” (KOREA RESEARCH INSTITUTE OF CHEMICAL TECHNOLOGY, priority 2018, dated 2025).
